Patent US20260365611A1, “CRYSTALLINE SALTS OF 2-PHENYL-2-AMINOCYCLOHEXAN-1-ONE DERIVATIVES” (priority 2023, published 2026)

Experiment: Polymorph screening (slurry, anti-solvent addition, thermal cycling, slow evaporation, vapor diffusion, polymer-induced crystallization)
Assay type: physicochemical
Design: key: CL: Clear Liquid; HCl-1: Form 1 polymorph; HCl-2: Mixture of Polymorphs of Form 1 and Form 2
Method: Based on the approximate solubility of the product of Example 1 (1R HCl Form 1), screening experiments were conducted to find potential additional crystalline forms (polymorphs) using different screening techniques including, but not limited to, slow evaporation, slow cooling, anti-solvent addition, slurry at RT and 50 °C, temperature cycling, diffusion (solid and liquid), and polymer induced crystallization. The various procedures are outlined hereinbelow.
~40 mg of the product of Example 1 was slurried in 0.5-1.0 mL of different solvents in a 4.0 mL glass vial using a magnetic stirrer at RT. The solids in the slurry were stirred for 7 days.
~40 mg of the product of Example 1 was slurried in 0.5-1.0 mL of different solvents in a 4.0 mL glass vial using a magnetic stirrer at 50 °C. […]. The solids in the slurry were stirred for 3 days.
~40 mg of the product of Example 1 was dissolved in a solvent to create a saturated solution and an anti-solvent was added up to 10 volume ratios. The solids, if any, were collected.
~40 mg of the product of Example 1 was dissolved in a solvent, heated, and cooled following temperature cycles of 45 °C/1h→35 °C/4h→25 °C/4h→15 °C/4h→5 °C/4 h for 7 days. The obtained solids (if any) were collected after 7 days.
~40 mg of the product of Example 1 was dissolved in a solvent in a vial to create a saturated solution. The vial opening was covered with parafilm or aluminum foil (2-holes). The vials were kept at RT under the hood. The obtained solids (if any) were collected after 7 days.
~40 mg of the product of Example 1 was dissolved in a solvent to create a saturated solution in a 4.0 mL glass vial. The vial was placed in a 20 mL glass vial containing an anti-solvent. The obtained solids were collected after 7-10 days.
~40 mg of the product of Example 1 was kept in a 4.0 mL glass vial; this vial was placed in a 20 mL glass vial containing a solvent. The solids were collected after 7-10 days.
~40 mg of the product of Example 1 and 2.0 mg of the listed polymer were added to a solvent and kept stirring at RT. The solids in slurry or precipitated solids from solution were collected after 7 days.

In the case of `CN[C@@]1(c2ccc(F)cc2)CCCCC1=O.Cl` [1R HCl, (R)-2-(4-fluorophenyl)-2-(methylamino)cyclohexan-1-one hydrochloride], the “Crystal Form” value (anti-solvent addition, DCM / 1,4-dioxane) is reported as “CL”, the “Crystal Form” value (anti-solvent addition, DCM / Acetone) is reported as “HCl-1” and the “Crystal Form” value (anti-solvent addition, DCM / CPME) is reported as “HCl-1”. The “Crystal Form” value (anti-solvent addition, DCM / EtOAc) was “HCl-1”, the “Crystal Form” value (anti-solvent addition, DCM / Hexane) was “HCl-1” and the “Crystal Form” value (anti-solvent addition, IPA / 1,4-dioxane) was “CL”. For the same compound, the “Crystal Form” value (anti-solvent addition, IPA / Acetone) was “CL”, the “Crystal Form” value (anti-solvent addition, IPA / Heptane) was “HCl-1” and the “Crystal Form” value (anti-solvent addition, IPA / IPAc) was “HCl-2”. For the same compound, the “Crystal Form” value (anti-solvent addition, IPA / MTBE) was “HCl-2”, the “Crystal Form” value (anti-solvent addition, MeOH / Acetone) was “CL” and the “Crystal Form” value (anti-solvent addition, MeOH / EtOAc) was “HCl-1”. The “Crystal Form” value (anti-solvent addition, MeOH / MTBE) was “HCl-1”, the “Crystal Form” value (anti-solvent addition, MeOH / THF) was “HCl-1” and the “Crystal Form” value (anti-solvent addition, MeOH / Toluene) was “HCl-2”. For the same compound, the “Crystal Form” value (anti-solvent addition, Water / 1,4-dioxane) was “CL”, the “Crystal Form” value (anti-solvent addition, Water / ACN) was “CL” and the “Crystal Form” value (anti-solvent addition, Water / THF) was “CL”. The “Crystal Form” value (liquid vapor diffusion RT, DMSO / Acetone) was “CL”, the “Crystal Form” value (liquid vapor diffusion RT, DMSO / EtOAc) was “CL” and the “Crystal Form” value (liquid vapor diffusion RT, DMSO / Toluene) was “CL”. The “Crystal Form” value (liquid vapor diffusion RT, MeOH / 2-MeTHF) was “CL”, the “Crystal Form” value (liquid vapor diffusion RT, MeOH / IPAc) was “CL” and the “Crystal Form” value (liquid vapor diffusion RT, MeOH / MTBE) was “CL”. For the same compound, the “Crystal Form” value (liquid vapor diffusion RT, NMP / 1,4-dioxane) was “CL”, the “Crystal Form” value (liquid vapor diffusion RT, NMP / Acetone) was “CL” and the “Crystal Form” value (liquid vapor diffusion RT, NMP / MTBE) was “HCl-1”. For the same compound, the “Crystal Form” value (polymer induced RT, ACN/H2O (9:1), PEO (Poloxamer 407)) was “gel”, the “Crystal Form” value (polymer induced RT, Acetone/DCM (9:1), PVP) was “HCl-2” and the “Crystal Form” value (polymer induced RT, Acetone/H2O (9:1), PVA) was “HCl-2”. The “Crystal Form” value (polymer induced RT, EtOH/Heptane (3/7), HPMC) was “HCl-1”, the “Crystal Form” value (polymer induced RT, MTBE/IPA (9:1), PVA) was “HCl-1” and the “Crystal Form” value (polymer induced RT, MeOH/H2O (9:1), PVP) was “gel”. The “Crystal Form” value (slow evaporation RT, 7 days, ACN) was “HCl-1”, the “Crystal Form” value (slow evaporation RT, 7 days, Acetone) was “HCl-1” and the “Crystal Form” value (slow evaporation RT, 7 days, DCM) was “HCl-2”. For the same compound, the “Crystal Form” value (slow evaporation RT, 7 days, DMF) was “CL”, the “Crystal Form” value (slow evaporation RT, 7 days, DMSO) was “CL” and the “Crystal Form” value (slow evaporation RT, 7 days, MeOH) was “gel”. The “Crystal Form” value (slow evaporation RT, 7 days, NMP) was “CL”, the “Crystal Form” value (slow evaporation RT, 7 days, Water) was “HCl-1” and the “Crystal Form” value (slow evaporation RT, 7 days, nPA) was “HCl-1”. The “Crystal Form” value (slurry 50 °C, 3 days, 1,4-dioxane) was “HCl-1”, the “Crystal Form” value (slurry 50 °C, 3 days, 2-MeTHF) was “HCl-1” and the “Crystal Form” value (slurry 50 °C, 3 days, ACN) was “HCl-1”. The “Crystal Form” value (slurry 50 °C, 3 days, Acetone/Toluene (1:1)) was “HCl-1”, the “Crystal Form” value (slurry 50 °C, 3 days, EtOAc) was “HCl-1” and the “Crystal Form” value (slurry 50 °C, 3 days, EtOH) was “HCl-1”. For the same compound, the “Crystal Form” value (slurry 50 °C, 3 days, IPA) was “HCl-1”, the “Crystal Form” value (slurry 50 °C, 3 days, IPAc) was “HCl-1” and the “Crystal Form” value (slurry 50 °C, 3 days, MEK) was “HCl-1”. The “Crystal Form” value (slurry 50 °C, 3 days, MIBK) was “HCl-1”, the “Crystal Form” value (slurry 50 °C, 3 days, MTBE) was “HCl-1” and the “Crystal Form” value (slurry 50 °C, 3 days, MeOH) was “HCl-1”. For the same compound, the “Crystal Form” value (slurry 50 °C, 3 days, THF/H2O (9:1)) was “gel”, the “Crystal Form” value (slurry 50 °C, 3 days, THF/n-Heptane (1:1)) was “HCl-1” and the “Crystal Form” value (slurry 50 °C, 3 days, Toluene) was “HCl-1”. The “Crystal Form” value (slurry 50 °C, 3 days, Water) was “HCl-1”, the “Crystal Form” value (slurry RT, 7 days, 1,4-dioxane) was “HCl-2” and the “Crystal Form” value (slurry RT, 7 days, ACN) was “HCl-2”. The “Crystal Form” value (slurry RT, 7 days, Acetone/H2O (aw = 0.2)) was “HCl-2”, the “Crystal Form” value (slurry RT, 7 days, Acetone/H2O (aw = 0.4)) was “HCl-2” and the “Crystal Form” value (slurry RT, 7 days, Acetone/H2O (aw = 0.6)) was “gel”. The “Crystal Form” value (slurry RT, 7 days, Acetone/H2O (aw = 0.8)) was “gel”, the “Crystal Form” value (slurry RT, 7 days, Acetone/Toluene (1:1)) was “HCl-1” and the “Crystal Form” value (slurry RT, 7 days, Anisole) was “HCl-1”. For the same compound, the “Crystal Form” value (slurry RT, 7 days, CPME) was “HCl-1”, the “Crystal Form” value (slurry RT, 7 days, EtOAc) was “HCl-1” and the “Crystal Form” value (slurry RT, 7 days, H2O) was “CL”. The “Crystal Form” value (slurry RT, 7 days, IPA) was “HCl-1”, the “Crystal Form” value (slurry RT, 7 days, IPAc) was “HCl-1” and the “Crystal Form” value (slurry RT, 7 days, MEK) was “HCl-1”. The “Crystal Form” value (slurry RT, 7 days, MIBK) was “HCl-1”, the “Crystal Form” value (slurry RT, 7 days, MTBE) was “HCl-1” and the “Crystal Form” value (slurry RT, 7 days, MeOH) was “HCl-1”. The “Crystal Form” value (slurry RT, 7 days, PEG) was “amorphous”, the “Crystal Form” value (slurry RT, 7 days, THF) was “HCl-2” and the “Crystal Form” value (slurry RT, 7 days, THF/n-Heptane (1:1)) was “HCl-1”. The “Crystal Form” value (slurry RT, 7 days, Toluene) was “HCl-1”, the “Crystal Form” value (solid vapor diffusion RT, 1,4-dioxane) was “HCl-1” and the “Crystal Form” value (solid vapor diffusion RT, 2-MeTHF) was “HCl-1”. For the same compound, the “Crystal Form” value (solid vapor diffusion RT, ACN) was “HCl-1”, the “Crystal Form” value (solid vapor diffusion RT, Acetone) was “HCl-1” and the “Crystal Form” value (solid vapor diffusion RT, DCM) was “CL”. For the same compound, the “Crystal Form” value (solid vapor diffusion RT, EtOAc) was “HCl-1”, the “Crystal Form” value (solid vapor diffusion RT, EtOH) was “CL” and the “Crystal Form” value (solid vapor diffusion RT, Hexane) was “HCl-1”. For the same compound, the “Crystal Form” value (solid vapor diffusion RT, MEK) was “HCl-1”, the “Crystal Form” value (solid vapor diffusion RT, MTBE) was “HCl-1” and the “Crystal Form” value (solid vapor diffusion RT, MeOH) was “CL”. For the same compound, the “Crystal Form” value (solid vapor diffusion RT, Toluene) was “HCl-1”, the “Crystal Form” value (thermal cycling, 7 days, ACN) was “HCl-1” and the “Crystal Form” value (thermal cycling, 7 days, DMSO) was “HCl-1”. The “Crystal Form” value (thermal cycling, 7 days, EtOH/acetone (3:7)) was “gel”, the “Crystal Form” value (thermal cycling, 7 days, EtOH/n-Heptane (3:7)) was “HCl-1” and the “Crystal Form” value (thermal cycling, 7 days, IPA) was “HCl-2”. For the same compound, the “Crystal Form” value (thermal cycling, 7 days, IPA/Toluene (3:7)) was “HCl-2” and the “Crystal Form” value (thermal cycling, 7 days, MeOH/IPAc (1:9)) was “HCl-1”.
